From paper PMC5841300, “Magnolol restores the activity of meropenem against NDM-1-producing Escherichia coli by inhibiting the activity of metallo-beta-lactamase” (Cell Death Discovery, 2018) come the findings set out here.

The structures appear in SMILES notation.

Test [1] has as its target T1, New Delhi metallo-β-lactamase-1 (NDM-1) (Escherichia coli, UniProt E5KIY2, K211A).
T1 construct: gene blaNDM-1; NDM-1 without the signal peptide, amino-terminal histidine tag
As to the kind of experiment: fluorescence quenching (binding constant KA).

In test [2] the target is T2, New Delhi metallo-β-lactamase-1 (NDM-1) (Escherichia coli, UniProt E5KIY2).
T2 construct: gene blaNDM-1; NDM-1 without the signal peptide, amino-terminal histidine tag
As to the kind of experiment: purified recombinant enzyme, nitrocefin hydrolysis assay; also fluorescence quenching, KA […] ([…] L/mol). Type of test: biochemical.

In test [3] the target is T3, New Delhi metallo-β-lactamase-1 (NDM-1) (Escherichia coli, UniProt E5KIY2, G219A).
T3 construct: gene blaNDM-1; NDM-1 without the signal peptide, amino-terminal histidine tag
The test is described as follows: fluorescence quenching (binding constant KA).

A word on the Kd: it is the concentration at which binding is half-saturated. A higher Kd goes with a looser complex. The IC50 is the concentration that inhibits the measured activity by half. `C=CCc1ccc(O)c(-c2cc(CC=C)ccc2O)c1` [magnolol]: the Kd is 20.8 µM in test [1] and 18.2 µM in test [3]. The IC50 in test [2] is 24.3 µM.
